In brackets after ≈: the same amount, converted by molar mass. Like-named read-outs stand apart in the source and are kept apart here.
How the values were obtained:
[1] = test system: M9510 (clinical strain, subsp. massiliense); design: method as in not given; conditions: supplemented Middlebrook 7H9 broth, reported values, ref not given; cited from earlier work
[2] = test system: Mab 19977 (ATCC 19977, subsp. abscessus); design: method as in not given; conditions: supplemented Middlebrook 7H9 broth, reported values, ref not given; cited from earlier work
[3] = test system: O=C(Cc1cccs1)N[C@@H]1C(=O)N2C(C(=O)O)=C(/C=C/c3ccc([N+](=O)[O-])cc3[N+](=O)[O-])CS[C@H]12; experiment: purified protein, by the assay type; conditions: other: nitrocefin hydrolysis by MAB_3998 (20 μM), 37 °C
Method: (B) Steady-state kinetic parameters for nitrocefin hydrolysis by Ldt4, PbpB, and MAB_3998.
To further characterize our findings, we determined the steady-state kinetic parameters for the hydrolysis of nitrocefin by Ldt4, PbpB, and MAB_3998 (Figure B).
Purified enzyme (Ldt4, 5 μM; PbpB, 20 μM; MAB_3998, 20 μM) or buffer alone was
in a 96-well microplate in 50 mM Tris-Cl pH 8.0 at 4 °C, 150 mM NaCl. Nitrocefin
hydrolysis was monitored at 486 nm on a microplate reader (30 sec intervals, 1-2 hr
duration, 37 °C). For Ldt4 and PbpB, initial rates were calculated from 240-570 sec of
the reaction. For MAB_3998, the initial rates were calculated from 120-1200 sec of the
reaction. The velocity against substrate concentration was fit to a nonlinear regression
assuming Michaelis-Menton steady-state kinetics in GraphPad Prism software.
Calculations were done using technical triplicates from two (MAB_3998) or three (Ldt4,
PbpB) separate experiments. Error is reported as standard deviation.

[4] = test system: β-lactam targets in M9510 whole-cell lysates; experiment: β-lactam competition of Mero-sCy5 labeling in whole-cell lysates; assay type: binding, Mycobacterium abscessus subsp. massiliense; conditions: drug 1 mM, then Mero-sCy5 5 μM
[5] = test system: β-lactam targets in Mab 19977 whole-cell lysates; experiment: as above; assay type: binding, Mycobacterium abscessus subsp. abscessus; conditions: Mab 19977 lysate; drug 1 mM, then Mero-sCy5 5 μM
[6] = test system: Mab 19977 whole-cell lysates (REP and CS); conditions: Mab 19977 lysates, 10 μM probe
Method: (§1) (D) Mero-sCy5- and (E) Bocillin FL-labeled 19977 and M9510 lysates (30 μg) were resolved by SDS-PAGE (12 μg/lane) and scanned for fluorescent signal.
(§2) Normalized lysates were ABP-labeled, resolved by SDS-PAGE, and gels were scanned for fluorescent signal (Figure S3).
(§3) In-Gel Analysis of Mero-sCy5 and Bocillin FL Binding
(§4) Normalized total protein lysates (30 μg) were labeled with 10 μM Meropenem-sulfoCy5 6
(§5) (Mero-sCy5) or 10 μM Bocillin FL (Invitrogen) for 60 min at RT, protected from light.
(§6) Labeling reactions were quenched by the addition of 1x TCEP loading dye (5X stock:
(§7) glycerol). Samples were heated to 75 °C for 10 min and resolved (12 μg/lane) via SDS-
(§8) PAGE (Criterion Bis-Tris gels, XT-MES running buffer, Bio-Rad). Gels were de-stained
(§9) of free probe overnight (30% methanol, 10% acetic acid in water) and scanned using
(§10) Amersham Typhoon imager (Cytiva). Adjustment of image brightness and contrast and
(§11) band intensity quantification were performed with Fiji7. Total protein staining was done
(§12) using Coomassie R-250 (Thermo Scientific, CAS 6104-58-1) (Figure S3).

[7] = test system: M9510 whole-cell lysates (REP and CS); conditions: 10 μM probe
Method: as §1, §2, §3, §4, §5, §6, §7, §8, §9, §10, §11, §12

Ldt4 [8] = target: T1, Ldt4 (Mycobacteroides abscessus, UniProt B1MKW1); experiment: β-lactam competition of ABP labeling, recombinant enzyme; assay type: binding, Mycobacterium abscessus; conditions: drug 500 μM, 30 min 37 °C, then 10 μM Mero-sCy5 or Bocillin FL
PbpB = PbpB (Mycobacteroides abscessus, UniProt B1MP31); experiment: β-lactam IC50 by drug treatment then Bocillin FL labeling, in-gel fluorescence; assay type: binding
MAB_0330 [9] = target: T2, MAB_0330 (Mycobacteroides abscessus, UniProt B1MFM9); experiment: as above; assay type: binding
DacB2 [10] = target: T3, DacB2 (Mycobacteroides abscessus, UniProt B1MDJ1); experiment: as above; assay type: binding, Mycobacterium abscessus
Ldt4 [11] = target: T1, Ldt4; experiment: as above; assay type: binding, Mycobacterium abscessus
[12] = human, in vivo; cited from earlier work
MAB_4800 = MAB_4800 (Mycobacteroides abscessus, UniProt B1MM83); experiment: β-lactam IC50 by drug treatment then Bocillin FL labeling, in-gel fluorescence; assay type: binding
[13] = test system: M. abscessus subsp. abscessus (n = 1344 isolates); design: method as in Hunkins et al.; conditions: ref Hunkins et al.; cited from earlier work
MAB_0330 [14] = target: T2, MAB_0330; experiment: β-lactam competition of ABP labeling, recombinant enzyme; assay type: binding; conditions: drug 500 μM, 30 min 37 °C, then 10 μM Mero-sCy5 or Bocillin FL
[15] = test system: M. abscessus subsp. massiliense (n = 754 isolates); design: method as in Hunkins et al.; conditions: ref Hunkins et al.; cited from earlier work
recombinant BlaMab = experiment: β-lactamase activity, nitrocefin hydrolysis; assay type: biochemical, Mycobacterium abscessus; conditions: data not shown
Ldt2 = test system: Ldt2; design: method as in not given; conditions: nitrocefin hydrolysis by Mab Ldt2, previously found, ref not given, cited from earlier work
[16] = test system: M9510 (clinical strain, subsp. massiliense); experiment: Reported MIC in supplemented Middlebrook 7H9 broth; assay type: cell-based, Mycobacterium abscessus subsp. massiliense; conditions: from past characterization of M9510, ref not given
[17] = target: Ldt4, PbpB, DacB2, and MAB_4800; experiment: β-lactam IC50, range over the four enzymes; assay type: binding, Mycobacterium abscessus
DacB2 [18] = target: T3, DacB2; experiment: β-lactam competition of ABP labeling, recombinant enzyme; conditions: drug 500 μM, 30 min 37 °C, then 10 μM Mero-sCy5 or Bocillin FL
Method: Purified protein was incubated with drug or buffer only before labeling with either Mero-sCy5 or Bocillin FL. Samples were then resolved by SDS-PAGE and imaged for quantification.
Purified protein (3 μg) was combined with drug (500 μM) or buffer (no treatment, NT) in 10 mM HEPES pH 7.5 (30 min, 37 °C). Samples were then labeled with 10 μM ABP (Mero-sCy5 or Bocillin FL) for 1 h at 37 °C. Labeled protein was resolved via SDS-PAGE (1 μg/lane) and fluorescent signal was quantified as mean intensity of three independent replicates. Error is reported as standard deviation and statistical significance was determined by one-way ANOVA with Tukey multiple comparisons test.
β-lactam Competition of ABP Labeling
Purified enzymes (3 μg) were incubated with 500 μM imipenem monohydrate (IPM,
MedChemExpress, CAS 74431-23-5), cefoxitin sodium salt (FOX, Sigma-Aldrich, CAS
buffer only in 10 mM HEPES (pH 7.5 ) for 30 min at 37 °C. Samples were then
incubated with 10 μM Mero-sCy5 or Bocillin FL for 60 min at 37 °C. Samples were
denatured with 1X TCEP SDS-PAGE loading dye by heating (10 min, 75 °C). Protein (1
μg/lane) was resolved via SDS-PAGE on 10% Bis-Tris gels (Bio-Rad, 1X XT MES
running buffer). Triplicate samples of each enzyme were prepared independently and

[19] = substrate: O=C(Cc1cccs1)N[C@@H]1C(=O)N2C(C(=O)O)=C(/C=C/c3ccc([N+](=O)[O-])cc3[N+](=O)[O-])CS[C@H]12; experiment: Steady-state kinetics of nitrocefin hydrolysis; assay type: biochemical, Mycobacterium abscessus; conditions: 37 °C
[20] = 0.5 μM enzyme, drug 30 min 37 °C, then 10 µM Bocillin FL
[21] = IC50 Ldt4, 0.5 μM enzyme, drug 30 min 37 °C, then 10 µM Bocillin FL
[22] = other: nitrocefin hydrolysis by Ldt4 (5 μM)
[23] = other: nitrocefin hydrolysis by PbpB (20 μM)

T3 sequence (B1MDJ1 entry or part of it): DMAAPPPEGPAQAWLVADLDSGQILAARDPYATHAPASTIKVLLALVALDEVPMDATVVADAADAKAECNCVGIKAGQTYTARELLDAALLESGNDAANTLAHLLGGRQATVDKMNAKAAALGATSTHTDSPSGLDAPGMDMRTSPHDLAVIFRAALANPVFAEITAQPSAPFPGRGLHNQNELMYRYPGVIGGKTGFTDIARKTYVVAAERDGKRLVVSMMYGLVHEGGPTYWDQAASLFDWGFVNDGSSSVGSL
MAB_4800, sequence (B1MM83 entry or part of it): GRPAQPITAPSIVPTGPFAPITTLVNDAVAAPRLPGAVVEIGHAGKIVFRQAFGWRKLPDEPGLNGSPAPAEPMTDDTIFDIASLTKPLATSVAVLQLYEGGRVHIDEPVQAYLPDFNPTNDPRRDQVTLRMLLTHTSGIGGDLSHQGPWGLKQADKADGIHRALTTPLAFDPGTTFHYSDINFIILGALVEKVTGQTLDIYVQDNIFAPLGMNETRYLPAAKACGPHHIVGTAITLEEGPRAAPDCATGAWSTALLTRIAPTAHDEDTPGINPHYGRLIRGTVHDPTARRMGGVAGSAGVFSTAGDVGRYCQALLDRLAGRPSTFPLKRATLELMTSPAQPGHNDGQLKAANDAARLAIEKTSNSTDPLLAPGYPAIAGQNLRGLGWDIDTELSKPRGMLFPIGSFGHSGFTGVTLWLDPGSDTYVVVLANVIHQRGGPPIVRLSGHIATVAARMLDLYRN
T2 sequence (B1MFM9 entry or part of it): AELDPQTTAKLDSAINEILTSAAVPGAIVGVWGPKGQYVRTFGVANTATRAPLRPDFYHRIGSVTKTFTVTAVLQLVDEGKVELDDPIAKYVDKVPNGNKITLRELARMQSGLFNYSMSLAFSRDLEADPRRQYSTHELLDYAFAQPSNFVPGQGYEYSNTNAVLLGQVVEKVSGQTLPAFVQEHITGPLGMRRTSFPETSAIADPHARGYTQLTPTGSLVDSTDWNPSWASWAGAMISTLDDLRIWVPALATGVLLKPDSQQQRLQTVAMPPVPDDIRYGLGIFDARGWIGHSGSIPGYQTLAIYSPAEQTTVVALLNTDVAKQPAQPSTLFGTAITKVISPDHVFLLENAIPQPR

In the case of `C=CC1=C(C(=O)O)N2C(=O)[C@@H](NC(=O)/C(=N\O)c3csc(N)n3)[C@H]2SC1` [cefdinir], the MIC [1] is listed as 128 µg/mL (≈ 324 µM) and the MIC [2] is listed as 128 µg/mL (≈ 324 µM).

“MAB_3998 (Mycobacteroides abscessus ATCC 19977)” showed a Km [3] of 150 ± 9 µM, a kcat [3] of 0.0022 ± 6.1e^-5 s^-1 and a kcat/Km [3] of 14 M⁻¹ s⁻¹.

For `C[C@H]1[C@H](NC(=O)/C(=N\OC(C)(C)C(=O)O)c2csc(N)n2)C(=O)N1S(=O)(=O)O` [AZT, aztreonam], the “inhibition of Mero-sCy5 labeling of targets in lysate” value (shortened to “inhibition … in lysate”) [4] was “largely ineffective inhibitors” and the “inhibition … in lysate” value [5] was “largely ineffective inhibitors”.

For `CC1(C)S[C@@H]2[C@H](NC(=O)Cc3ccccc3)C(=O)N2[C@H]1C(=O)O` [PEN, penicillin G], the “inhibition … in lysate” value [4] was “largely ineffective inhibitors” and the “inhibition … in lysate” value [5] was “largely ineffective inhibitors”.

For `C[C@@H](O)[C@H]1C(=O)N2C(C(=O)O)=C(S[C@H]3C[C@@H](C(=O)N(C)C)N(C(=O)CCCCC[N+]4=C(/C=C/C=C/C=C5/N(C)c6ccc(S(=O)(=O)O)cc6C5(C)C)C(C)(C)c5cc(S(=O)(=O)[O-])ccc54)C3)[C@H](C)[C@H]12` [Mero-sCy5], the “targets labeled in gel-resolved lysate” value [6] was “labeled more targets than Bocillin FL” and the “targets labeled in gel-resolved lysate” value [7] was “labeled more targets than Bocillin FL”.

For `CC(C)(O/N=C(\C(=O)N[C@@H]1C(=O)N2C(C(=O)[O-])=C(C[n+]3ccccc3)CS[C@H]12)c1csc(N)n1)C(=O)O` [ceftazidime], the MIC [1] is listed as > 256 µg/mL and the MIC [2] is listed as > 256 µg/mL.

In the case of `NCC[C@H](O)C(=O)N[C@@H]1C[C@H](N)[C@@H](O[C@H]2O[C@H](CN)[C@@H](O)[C@H](O)[C@H]2O)[C@H](O)[C@H]1O[C@H]1O[C@H](CO)[C@@H](O)[C@H](N)[C@H]1O` [amikacin], the “susceptibility indicated by reported MIC” value [1] is given as “susceptible” and the “susceptibility indicated by reported MIC” value [2] is given as “susceptible”.

In the case of `CO[C@H]1/C=C/O[C@@]2(C)Oc3c(C)c(O)c4c(c3C2=O)C2=NC3(CCN(CC(C)C)CC3)NC2=C(NC(=O)/C(C)=C\C=C\[C@H](C)[C@H](O)[C@@H](C)[C@@H](O)[C@@H](C)[C@H](OC(C)=O)[C@@H]1C)C4=O` [rifabutin], the “susceptibility indicated by reported MIC” value [1] is listed as “susceptible” and the “susceptibility indicated by reported MIC” value [2] is listed as “susceptible”.

In the case of `CO[C@@]1(NC(=O)Cc2cccs2)C(=O)N2C(C(=O)O)=C(COC(N)=O)CS[C@@H]21` [FOX, cefoxitin], the “inhibition of fluorescent ABP binding to Ldt4” value (Ldt4 [8]) is listed as “did not inhibit”, the IC50 (PbpB; [20]) is listed as 12 ± 4 µM and the MIC [1] is listed as 64 µg/mL (≈ 150 µM). The “inhibition … in lysate” value [4] was “inhibited many targets but not all”, the IC50 (MAB_0330 [9]; fit not accurate, error unacceptably large (± 180 μM IPM, ± 240 μM FOX)) was 270 µM and the IC50 (DacB2 [10]) was 0.4 ± 0.9 µM. For the same molecule, the “fold more potent inhibition of DacB2 than IPM” value (DacB2 [10]; IC50 comparison FOX vs IPM) was 5 fold, the “IC50 Ldt4” value (Ldt4 [11]; [20]) was “did not inhibit” and the IC50 (Ldt4 [11]; [21]) was > 1000 µM. The “fCss,avg (median unbound average steady-state plasma concentration)” value [12] was 4.0 µg/mL, the “inhibition … in lysate” value [5] was “inhibited many targets but not all” and the MIC [2] was 64 µg/mL (≈ 150 µM). The IC50 (MAB_4800; [20]) was > 1000 µM, the “IC50 MAB_4800” value (MAB_4800; [20]) was “did not inhibit” and the MIC90 [13] was 64 µg/mL (≈ 150 µM). For the same molecule, the “inhibition of fluorescent ABP binding to MAB_0330” value (MAB_0330 [14]) was “weakly inhibited” and the MIC90 [15] was 64 µg/mL (≈ 150 µM).

In the case of `O=C(Cc1cccs1)N[C@@H]1C(=O)N2C(C(=O)O)=C(/C=C/c3ccc([N+](=O)[O-])cc3[N+](=O)[O-])CS[C@H]12` [nitrocefin], the “nitrocefin hydrolysis by BlaMab” value (recombinant BlaMab) is listed as “complete nitrocefin hydrolysis near instantaneously”, the “maximal rate of hydrolysis” value (Ldt2) is listed as 0.33 µM/s and the Km (Ldt2; read-out: affinity for nitrocefin (Km)) is listed as 328 µM.

In the case of `CC1(C)S[C@@H]2[C@H](NC(=O)[C@H](N)c3ccc(O)cc3)C(=O)N2[C@H]1C(=O)O` [amoxicillin], the MIC [1] is given as > 256 µg/mL and the MIC [2] is given as > 256 µg/mL.

For `C[C@@H](O)[C@H]1C(=O)N2C(C(=O)O)=C(S[C@@H]3CN[C@H](CNS(N)(=O)=O)C3)[C@H](C)[C@H]12` [doripenem], the MIC [1] is listed as 64 µg/mL (≈ 152 µM), the MIC [2] is listed as 16 µg/mL (≈ 38 µM) and the “increased MIC in M9510 relative to 19977” value [16] is listed as 4 fold.

With `C[C@@H](O)[C@H]1C(=O)N2C(C(=O)O)=C(S[C@@H]3CN[C@H](C(=O)N(C)C)C3)[C@H](C)[C@H]12` [meropenem] the “inhibition … in lysate” value [4] was “abolished ABP labeling” and the “inhibition … in lysate” value [5] was “abolished ABP labeling”.

For `C[C@@H](O)[C@H]1C(=O)N2C(C(=O)O)=C(SCCN=CN)C[C@H]12` [IPM, imipenem], the IC50 (PbpB) is listed as 4 ± 2 µM, the “fold more potent inhibition of PbpB than FOX” value (PbpB; IC50 comparison IPM vs FOX) is listed as 3 fold and the MIC [1] is listed as 24 µg/mL (≈ 80.2 µM). For the same molecule, the “inhibition … in lysate” value [4] was “abolished ABP labeling”, the IC50 (MAB_0330 [9]) was 170 µM and the IC50 (DacB2 [10]) was 2 ± 1 µM. The IC50 (Ldt4 [11]; IC50 (best-fit value, example analysis Figure S8), Ldt4 with IPM, one experiment, 95% CI 1.796 to 11.10, R squared 0.8570) was 5.18 µM, the IC50 (Ldt4 [11]; [21]) was 4 ± 2 µM and the “HillSlope (best-fit value, example analysis Figure S8)” value (Ldt4 [11]; Ldt4 with IPM, one experiment) was -1.416. The “fCss,avg (median unbound average steady-state plasma concentration)” value [12] was 12.2 µg/mL, the “inhibition … in lysate” value [5] was “abolished ABP labeling” and the MIC [2] was 8 µg/mL (≈ 26.7 µM). The IC50 (MAB_4800) was 7 ± 3 µM, the “IC50 for the four enzymes, in mass units” value [17] was 0.5 to 2 µg/mL and the MIC90 [13] was 16 µg/mL (≈ 53.4 µM). For the same molecule, the MIC90 [15] was 16 µg/mL (≈ 53.4 µM) and the “increased MIC in M9510 relative to 19977” value [16] was 3 fold.

In the case of `NC(=O)[C@@H]1CC[C@@H]2CN1C(=O)N2OS(=O)(=O)O` [AVI, avibactam], the “inhibition of fluorescent ABP binding to Ldt4” value (Ldt4 [8]) is reported as “enhancement of Ldt4 binding by Mero-sCy5” and the “inhibition of fluorescent ABP binding to DacB2” value (DacB2 [18]) is reported as “intermediate inhibition”.

B1: Ldt4 (Mycobacteroides abscessus ATCC 19977) (protein)
chain: GDVPPLPVGLLKNSPNNGDVVGVAQPITIVFAAPVTDKKAAEAAVKITTSKPAPGYFYWYTDQQLRWKPTQFWPANTDVNVNAGGTKWSFKVGDAFVSTVDDATYTMTVTRNGVVERTMPISMGKHDKKHETKNGTYYVSEKFQKMVMDSSTYGVPVNSAEGYKLDVYWATRLSNSGIFVHAAPWSVGAQGKSDTSHGCINVNTDNATWFFNQSHPGDPVIVKNSPGGPYKDYDGYDDWQRF
Molecule B1 has a Km [19, 22] of 65 ± 7 µM, a kcat [19, 22] of 0.0042 ± 2.0e^-4 s^-1 and a kcat/Km [19, 22] of 65 M⁻¹ s⁻¹.

B2: PbpB (Mycobacteroides abscessus ATCC 19977) (protein)
chain: GPRAAGLRAEASGQLKVTETEKALRGTIVDRAGNKLAFTIEARALTFQPKKIREQLNKAWEKSQEILKDPGKSDADKAAAAKIRSVEPERRLQDIANGVSAKLGNKPDAKSLLKKIRSDDTFAYLARSVDPGIAAQITKEFPEVGAERQDIRQYPGGSLAANIVGSIDWEGYGLLGLEDSLDSALAGKDGSLTYDRGSDGAVIPGSYRDRHDAVNGSTVELTLDNDIQFYVQQQVQQAKDLSEARSVSAVVLDSKTGEVLAMANDNTFDPSQNLGKQGNREMGNLSVSSPFEPGSVNKVITASAVIENDLSNPDEVLQVPGSINMGGVTVRDAWPHGTVPFTTTGVFGKSSNVGTLMLAQRVGPERFMDLVDKFGLGQRTGVGLPGESAGIVPPIEQWSGSTFSNLPIGQGLSMTLLQMAGMYQAIANDGVRIPPRIVKSITAPDGSRKEEPRPEPVQVVNAGTARTVRNMLRAVLQPDARQIQNGTGASGAVDGYQLSGKTGTAQQINPACGCYFDDVYWITFAGIATTDDPRYVIGIEMNAPKRGSDGSPHMTAAPLFHNIASWLMRRENVPLSPDPGPPLILQAT
B2 gave a Km [19, 23] of 220 ± 27 µM, a kcat [19, 23] of 0.00075 ± 3.1e^-5 s^-1 and a kcat/Km [19, 23] of 3.4 M⁻¹ s⁻¹.

Reference: article PMC13162264, “Chemoproteomic Elucidation of β‑Lactam Drug Targets in Mycobacterium abscessus” (ACS Infectious Diseases, 2026)
